Assays:
[1] = target: T1, pseudo-kinase domain (JH2) of human Wild Type JAK2 (Homo sapiens, UniProt O60674, F794H/W659A/W777A); test: JAK2 LanthaScreen JH2-WT Binding Assay; settings: 50 nM Fluorescent JAK2-JH2 Tracer, 1 hour at 25° C.
T1 construct: pseudo-kinase domain (JH2, amino-acids 536-812 with 3 surface mutations W659A, W777A, F794H); His (C); purchased BPS Bioscience 79463; host or cells: baculovirus expression system
Protocol: (§1) Example B. JAK2 LanthaScreen JH2-WT Binding Assay JAK2 JH2-WT binding assay utilizes pseudo-kinase domain (JH2, amino-acids 536-812 with 3 surface mutations […]) of human Wild Type JAK2 expressed as C-terminal His-Avi-tagged, biotinylated protein in a baculovirus expression system (BPS Bioscience, Catalog #79463). The assay was conducted in black 384-well polystyrene plates in a final reaction volume of 20 μL. JAK2 JH2-WT (0.145 nM) was incubated with compounds (100 nL serially diluted in DMSO) in the presence of 50 nM Fluorescent JAK2-JH2 Tracer (MedChem Express Catalog #HY-102055) and 0.25 nM Streptavidin-Tb cryptate (Cisbio Part #610SATLB) in assay buffer (50 mM Tris, pH=7.5, 10 mM MgCl2, 0.01% Brij-35, 0.1% BSA, 1 mM EGTA, 5% Glycerol and 5 mM DTT). Non-specific binding was accessed in the presence of 2 mM ATP. After incubation for 1 hour at 25° C., LanthaScreen signals were read on a PHERAstar FS plate reader (BMG LABTECH). Data was analyzed with IDBS XLfit and GraphPad Prism 5.0 software using a four parameter dose response curve to determine IC50 for each compound.

[2] = target: T2, catalytic domain (JH1) of human JAK2 (Homo sapiens, UniProt O60674); test: JAK2 LanthaScreen JH1 Binding Assay; settings: 50 nM Fluorescent JAK2-JH1 Tracer, 2 hours at 25° C.
T2 construct: catalytic domain (JH1, amino acids 826-1132) of human JAK2; FLAG (N); purchased Carna Biosciences 08-445-20N; host or cells: baculovirus expression system
T2 sequence (O60674 826-1132): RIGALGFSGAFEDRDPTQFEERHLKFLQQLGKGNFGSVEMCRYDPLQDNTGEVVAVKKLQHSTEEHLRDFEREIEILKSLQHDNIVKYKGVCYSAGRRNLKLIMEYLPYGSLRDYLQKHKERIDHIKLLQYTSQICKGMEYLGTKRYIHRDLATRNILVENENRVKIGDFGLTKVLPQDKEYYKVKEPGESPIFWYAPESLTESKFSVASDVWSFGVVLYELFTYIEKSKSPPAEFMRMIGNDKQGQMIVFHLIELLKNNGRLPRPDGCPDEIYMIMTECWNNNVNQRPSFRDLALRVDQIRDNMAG
Protocol: Example A. JAK2 LanthaScreen […] Binding Assay JAK2 JH1 binding assay utilizes catalytic domain (JH1, amino acids 826-1132) of human JAK2 expressed as N-terminal FLAG-tagged, biotinylated protein in a baculovirus expression system (Carna Biosciences, Product #08-445-20N). The assay was conducted in black 384-well polystyrene plates in a final reaction volume of 20 μL. JAK2 JH1 (1.5 nM) was incubated with compounds (100 nL serially diluted in DMSO) in the presence of 50 nM Fluorescent JAK2-JH1 Tracer and 0.5 nM Streptavidin-Tb cryptate (Cisbio Part #610SATLB) in assay buffer (50 mM Tris, pH=7.5, 10 mM MgCl2, 0.01% Brij-35, 0.1% BSA, 1 mM EGTA, 5% Glycerol and 5 mM DTT). Non-specific binding was accessed in the presence of 2 mM ATP. After incubation for 2 hours at 25° C., LanthaScreen signals were read on a PHERAstar FS plate reader (BMG LABTECH). Data was analyzed with IDBS XLfit and GraphPad Prism 5.0 software using a four parameter dose response curve to determine IC50 for each compound.

[3] = target: T3, pseudo-kinase domain (JH2) of human V617F mutant JAK2 (Homo sapiens, UniProt O60674, F794H/V617F/W659A/W777A); test: JAK2 LanthaScreen JH2-V617F Binding Assay; settings: 50 nM Fluorescent JAK2-JH2 Tracer, 1 hour at 25° C.
T3 construct: pseudo-kinase domain (JH2, amino-acids 536-812 with 3 surface mutations W659A, W777A, F794H); His (C); purchased BPS Bioscience 79498; host or cells: baculovirus expression system
T3 sequence (O60674 536-812 V617F/W659A/W777A/F794H): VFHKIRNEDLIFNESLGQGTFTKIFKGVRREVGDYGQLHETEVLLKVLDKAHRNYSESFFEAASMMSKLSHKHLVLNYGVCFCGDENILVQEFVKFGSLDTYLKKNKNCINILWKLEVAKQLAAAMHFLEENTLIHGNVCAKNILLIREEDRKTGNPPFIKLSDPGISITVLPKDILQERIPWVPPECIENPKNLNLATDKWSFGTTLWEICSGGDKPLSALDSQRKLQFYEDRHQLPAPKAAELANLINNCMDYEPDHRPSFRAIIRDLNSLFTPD
Protocol: as §1, with “C.” for “B.”, “JH2-V617F” for “JH2-WT”, “V617F mutant” for “Wild Type”, “#79498).” for “#79463).”, “JH2-V617F (0.26” for “JH2-WT (0.145”

T1 sequence (O60674 536-812 W659A/W777A/F794H): as the sequence (O60674 536-812 V617F/W659A/W777A/F794H) above, with F82V counted along it

IC50 [1] | IC50 [2] | IC50 [3] | SMILES
> 2500 nM | > 2500 nM | 1000 to 2500 nM | CN(C)S(=O)(=O)c1ccc(-c2[nH]c3nc(N)[nH]c(=O)c3c2-c2ccccc2OC(F)F)cc1 [Example 19, 4-(2-Amino-5-(2-(difluoromethoxy)phenyl)-4-oxo-4,7-dihydro-3H-pyrrolo[2,3-d]pyrimidin-6-yl)-N,N-dimethylbenzene sulfonamide]
> 2500 nM | > 2500 nM | > 2500 nM | CN(C)S(=O)(=O)c1ccc(-c2[nH]c3nc(N)[nH]c(=O)c3c2-c2cccc3cn[nH]c23)cc1 [Example 20, 4-(2-Amino-5-(1H-indazol-7-yl)-4-oxo-4,7-dihydro-3H-pyrrolo[2,3-d]pyrimidin-6-yl)-N,N-dimethylbenzene sulfonamide]
1000 to 2500 nM | > 2500 nM | > 2500 nM | COc1ccc(Cl)cc1-c1c(-c2ccc(S(=O)(=O)N(C)C)cc2)[nH]c2nc(N)[nH]c(=O)c12 [Example 27, 4-(2-Amino-5-(5-chloro-2-methoxyphenyl)-4-oxo-4,7-dihydro-3H-pyrrolo[2,3-d]pyrimidin-6-yl)-N,N-dimethylbenzene sulfonamide]
1000 to 2500 nM | > 2500 nM | 1000 to 2500 nM | COc1ncccc1-c1c(-c2ccc(S(=O)(=O)N(C)C)cc2)[nH]c2nc(N)[nH]c(=O)c12 [Example 28, 4-(2-Amino-5-(2-methoxy-pyridin-3-yl)-4-oxo-4,7-dihydro-3H-pyrrolo[2,3-d]pyrimidin-6-yl)-N,N-dimethylbenzene sulfonamide]
500 to 1000 nM | > 2500 nM | 500 to 1000 nM | COc1cc2ccccc2cc1-c1c(-c2ccc(S(=O)(=O)N(C)C)cc2)[nH]c2nc(N)[nH]c(=O)c12 [Example 33, 4-(2-Amino-5-(3-methoxynaphthalen-2-yl)-4-oxo-4,7-dihydro-3H-pyrrolo[2,3-d]pyrimidin-6-yl)-N,N-dimethylbenzene sulfonamide]

The remaining lines, values behind:

SMILES | IC50 [1] | IC50 [2] | IC50 [3]
CN(C)S(=O)(=O)c1ccc(-c2[nH]c3nc(N)[nH]c(=O)c3c2-c2ccc3c(c2)CCNC3=O)cc1 [Example 21, 4-(2-Amino-4-oxo-5-(1-oxo-1,2,3,4-tetrahydro-isoquinolin-6-yl)-4,7-dihydro-3H-pyrrolo[2,3-d]pyrimidin-6-yl)-N,N-dimethylbenzene sulfonamide] | 100 to 500 nM | 1000 to 2500 nM | 100 to 500 nM
CN1CCOc2cc(-c3c(-c4ccc(S(=O)(=O)N(C)C)cc4)[nH]c4nc(N)[nH]c(=O)c34)ccc21 [Example 22, 4-(2-Amino-5-(4-methyl-3,4-dihydro-2H-benzo[b] [1,4]oxazin-7-yl)-4-oxo-4,7-dihydro-3H-pyrrolo [2,3-d]pyrimidin-6-yl)-N,N-dimethylbenzene sulfonamide] | 500 to 1000 nM | 1000 to 2500 nM | 500 to 1000 nM
COc1cc(C(N)=O)ccc1-c1c(-c2ccc(S(=O)(=O)N(C)C)cc2)[nH]c2nc(N)[nH]c(=O)c12 [Example 23, 4-(2-Amino-6-(4-(N,N-dimethylsulfamoyl)phenyl)-4-oxo-4,7-dihydro-3H-pyrrolo[2,3-d]pyrimidin-5-yl)-3-methoxy-benzamide] | 500 to 1000 nM | > 2500 nM | 500 to 1000 nM
COc1ccc(C(F)(F)F)cc1-c1c(-c2ccc(S(=O)(=O)N(C)C)cc2)[nH]c2nc(N)[nH]c(=O)c12 [Example 24, 4-(2-Amino-5-(2-methoxy-5-(trifluoromethyl)phenyl)-4-oxo-4,7-dihydro-3H-pyrrolo[2,3-d]pyrimidin-6-yl)-N,N-dimethylbenzene sulfonamide] | 1000 to 2500 nM | > 2500 nM | 1000 to 2500 nM
COc1ccc(OC)c(-c2c(-c3ccc(S(=O)(=O)N(C)C)cc3)[nH]c3nc(N)[nH]c(=O)c23)c1 [Example 25, 4-(2-Amino-5-(2,5-dimethoxyphenyl)-4-oxo-4,7-dihydro-3H-pyrrolo[2,3-d]pyrimidin-6-yl)-N,N-dimethylbenzene sulfonamide] | 500 to 1000 nM | > 2500 nM | 500 to 1000 nM
CN(C)S(=O)(=O)c1ccc(-c2[nH]c3nc(N)[nH]c(=O)c3c2-c2cnn(Cc3cccnc3)c2)cc1 [Example 29, 4-(2-Amino-4-oxo-5-(1-(pyridin-3-ylmethyl)-1H-pyrazol-4-yl)-4,7-dihydro-3H-pyrrolo[2,3-d]pyrimidin-6-yl)-N,N-dimethylbenzene sulfonamide] | > 2500 nM | > 2500 nM | > 2500 nM
CN(C)S(=O)(=O)c1ccc(-c2[nH]c3nc(N)[nH]c(=O)c3c2-c2cnn(Cc3ccccc3)c2)cc1 [Example 30, 4-(2-Amino-5-(1-benzyl-1H-pyrazol-4-yl)-4-oxo-4,7-dihydro-3H-pyrrolo[2,3-d]pyrimidin-6-yl)-N,N-dimethylbenzene sulfonamide] | > 2500 nM | > 2500 nM | > 2500 nM
CN(C)S(=O)(=O)c1ccc(-c2[nH]c3nc(N)[nH]c(=O)c3c2-c2cnn(Cc3ccc(C#N)cc3)c2)cc1 [Example 31, 4-(2-Amino-5-(1-(4-cyanobenzyl)-1H-pyrazol-4-yl)-4-oxo-4,7-dihydro-3H-pyrrolo[2,3-d]pyrimidin-6-yl)-N,N-dimethylbenzene sulfonamide] | 1000 to 2500 nM | 1000 to 2500 nM | 1000 to 2500 nM
CN(C)S(=O)(=O)c1ccc(-c2[nH]c3nc(N)[nH]c(=O)c3c2-c2cnn(Cc3ccncc3)c2)cc1 [Example 32, 4-(2-Amino-4-oxo-5-(1-(pyridin-4-ylmethyl)-1H-pyrazol-4-yl)-4,7-dihydro-3H-pyrrolo[2,3-d]pyrimidin-6-yl)-N,N-dimethylbenzene sulfonamide] | 1000 to 2500 nM | > 2500 nM | 1000 to 2500 nM
CN(C)S(=O)(=O)c1ccc(-c2[nH]c3nc(N)[nH]c(=O)c3c2-c2cccc(C(=O)O)c2)cc1 [Example 34, 3-(2-amino-6-(4-(N,N-dimethylsulfamoyl)phenyl)-4-oxo-4,7-dihydro-3H-pyrrolo[2,3-d]pyrimidin-5-yl)benzoic acid] | 100 to 500 nM | > 2500 nM | 100 to 500 nM
CN(C)S(=O)(=O)c1ccc(-c2[nH]c3nc(N)[nH]c(=O)c3c2-c2ccc(C(=O)O)cc2)cc1 [Example 35, 4-(2-amino-6-(4-(N,N-dimethylsulfamoyl)phenyl)-4-oxo-4,7-dihydro-3H-pyrrolo[2,3-d]pyrimidin-5-yl)benzoic acid] | 100 to 500 nM | 500 to 1000 nM | 100 to 500 nM
CN(C)S(=O)(=O)c1ccc(-c2[nH]c3nc(N)[nH]c(=O)c3c2-c2cnn(C3CCS(=O)(=O)C3)c2)cc1 (stereo not drawn) [Example 36, 4-(2-Amino-5-(1-(1,1-dioxidotetrahydrothiophen-3-yl)-1H-pyrazol-4-yl)-4-oxo-4,7-dihydro-3H-pyrrolo[2,3-d]pyrimidin-6-yl)-N,N-dimethylbenzene sulfonamide] | 1000 to 2500 nM | 1000 to 2500 nM | 1000 to 2500 nM
